The structures appear in SMILES notation.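 Cultured in 96-well plates, cells were exposed to test compound for 48 hours across five concentrations. GI50: concentration for 50% inhibition of growth. TGI denotes the concentration required for complete inhibition of growth.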

The source of these data is PubChem BioAssay (NCI).

Some test systems named below: HOP-62 NSCLC; MCF7 breast; NCI-H460 lung; KM12 colon; MOLT-4 leukemia; TK-10 renal; SK-MEL-5 melanoma; NCI-H522 lung; NCI-H23 lung; LOX IMVI melanoma.
Common to all, as to assay: NCI anticancer screen, dose series, 48 h

In the case of `CC1(O)COCCCCOc2c(CN)cccc2NC(=O)c2nc(cnc2N)-c2ccc(cc2)S(=O)(=O)C(C)(C)C1` (stereo not drawn), the GI50 in the experiment with HOP-62 NSCLC was 1.26 µM; in the experiment on MCF7 breast, less than 0.01 µM; in the experiment with NCI-H460 lung, less than 0.01 µM; with KM12 colon, 1.43 µM; with MOLT-4 leukemia, 0.019 µM; in the experiment on TK-10 renal, 1.64 µM. In addition, the GI50 in the experiment on SK-MEL-5 melanoma is 1.25 µM. The TGI in the experiment with HOP-62 NSCLC is 3.17 µM; with MCF7 breast, 1.89 µM; in the experiment with NCI-H460 lung, 1.94 µM; in the experiment with KM12 colon it was 2.93 µM; in the experiment with MOLT-4 leukemia, 2.4 µM; with TK-10 renal, 3.34 µM. In the experiment with SK-MEL-5 melanoma, the TGI was 2.56 µM.

Take `Oc1ccc(-c2nc3cc(F)ccc3s2)cc1`: the TGI in the experiment with NCI-H522 lung was 30.7 µM; in the experiment on HOP-62 NSCLC it was 63 µM; with MCF7 breast it was 28.5 µM; with NCI-H460 lung it was 48.8 µM; with KM12 colon, 52.5 µM; in the experiment with MOLT-4 leukemia it was more than 100 µM. Further, the TGI with NCI-H23 lung turned out to be 83.8 µM; with TK-10 renal, 56 µM; with LOX IMVI melanoma, 33.3 µM; in the experiment on SK-MEL-5 melanoma it was 41.6 µM.

For the compound `CO/N=C(\C)c1cccc(Nc2nc3ccccc3c3occc23)c1`, the TGI in the experiment with HOP-62 NSCLC came out at 28.7 µM; in the experiment with MCF7 breast, 36.8 µM; with NCI-H460 lung, 29.6 µM; with KM12 colon, 24.5 µM; in the experiment on MOLT-4 leukemia, 37.3 µM; in the experiment on TK-10 renal, 26 µM. The TGI in the experiment with LOX IMVI melanoma was 31.6 µM; in the experiment on SK-MEL-5 melanoma, 28.7 µM.

As for `CCc1ccc2c(c1)C(=O)c1c-2n(CCCN)c(=O)c2cc([N+](=O)[O-])ccc12`, the GI50 is 1.23 µM in the experiment on NCI-H522 lung; 1.37 µM in the experiment with HOP-62 NSCLC; 0.362 µM with MCF7 breast; 0.167 µM in the experiment with NCI-H460 lung; 1.02 µM with KM12 colon; 1.81 µM in the experiment with NCI-H23 lung. Moreover, the GI50 was 1.2 µM in the experiment with TK-10 renal, 1.19 µM in the experiment with LOX IMVI melanoma and 1.6 µM in the experiment with SK-MEL-5 melanoma. Moreover, the TGI with NCI-H522 lung is 2.7 µM; in the experiment with HOP-62 NSCLC it was 2.78 µM; with MCF7 breast, 1.6 µM; in the experiment on NCI-H460 lung, 0.504 µM; in the experiment with KM12 colon, 2.43 µM; with NCI-H23 lung, 3.29 µM. For the same compound, the TGI with TK-10 renal turned out to be 2.49 µM; in the experiment with LOX IMVI melanoma it was 2.62 µM; in the experiment on SK-MEL-5 melanoma, 3.12 µM.

Consider `COc1cc([N+](=O)[O-])ccc1N1C(=O)C2c3[nH]c4ccccc4c3C3CCC(C(C)(C)C)CC3C2C1=O` (stereo not drawn), for which the TGI in the experiment with NCI-H522 lung is more than 100 µM; in the experiment with HOP-62 NSCLC, 81.2 µM; in the experiment with MCF7 breast, more than 100 µM; with NCI-H460 lung, more than 100 µM; in the experiment with KM12 colon, more than 100 µM; in the experiment on MOLT-4 leukemia, more than 100 µM. In addition, the TGI in the experiment on NCI-H23 lung, with TK-10 renal, in the experiment with LOX IMVI melanoma and in the experiment on SK-MEL-5 melanoma was more than 100 µM each time.

On to `Cc1ccc([N+](=O)[O-])cc1S(=O)(=O)Nc1ccc(C2=NOC(c3ccccc3O)C2)cc1` (stereo not drawn), for which the TGI in the experiment on NCI-H522 lung was 6.4 µM; in the experiment with HOP-62 NSCLC it was more than 100 µM; with MCF7 breast, 14 µM; in the experiment with NCI-H460 lung it was 25.3 µM; with KM12 colon, 38.2 µM; in the experiment with MOLT-4 leukemia it was 9.04 µM. For the same compound, the TGI in the experiment with NCI-H23 lung was 98.4 µM; in the experiment on TK-10 renal, more than 100 µM; with LOX IMVI melanoma it was more than 100 µM; in the experiment on SK-MEL-5 melanoma it was 49.4 µM.

As to `COc1cc([N+](=O)[O-])ccc1NC(=O)c1cccc([N+](=O)[O-])c1O`, the TGI in the experiment with NCI-H522 lung was 39 µM; in the experiment with HOP-62 NSCLC, more than 100 µM; with NCI-H460 lung, more than 100 µM; with KM12 colon, more than 100 µM; with MOLT-4 leukemia, more than 100 µM; in the experiment on NCI-H23 lung it was 96.9 µM. For the same compound, the TGI in the experiment with LOX IMVI melanoma is more than 100 µM; with SK-MEL-5 melanoma it was 31 µM.

On to `CNC(C)Cc1ccccc1OC` (stereo not drawn), for which the TGI with NCI-H522 lung, in the experiment on HOP-62 NSCLC, with NCI-H460 lung, with KM12 colon, in the experiment on MOLT-4 leukemia and in the experiment on NCI-H23 lung was more than 100 µM in each case. Further, the TGI in the experiment with TK-10 renal, in the experiment on LOX IMVI melanoma and with SK-MEL-5 melanoma was more than 100 µM throughout.

Take `c1c2c(cc3c1OCO3)-c1cc3ccc4c(c3c[n+]1CC2)OCO4`: the TGI in the experiment with NCI-H522 lung is 1.8 µM; in the experiment with HOP-62 NSCLC it was more than 12.5 µM; with MCF7 breast, more than 12.5 µM; in the experiment on NCI-H460 lung, 3.55 µM; in the experiment with KM12 colon, more than 5.45 µM; in the experiment on MOLT-4 leukemia, more than 12.5 µM. The TGI was more than 12.5 µM in the experiment on NCI-H23 lung, more than 12.5 µM with TK-10 renal, more than 8.44 µM in the experiment with LOX IMVI melanoma and more than 5 µM in the experiment with SK-MEL-5 melanoma.

Turning to `CCO[C@]12CCC[C@H]1[C@@H]1C(=O)c3ccccc3C(=O)C1=C(C)O2`, the TGI in the experiment on NCI-H522 lung was more than 100 µM; with HOP-62 NSCLC it was more than 100 µM; in the experiment with MCF7 breast, 35.8 µM; in the experiment with NCI-H460 lung, more than 100 µM; in the experiment on KM12 colon, more than 100 µM; in the experiment on MOLT-4 leukemia, more than 100 µM. Besides, the TGI in the experiment on NCI-H23 lung is more than 100 µM; in the experiment on TK-10 renal, more than 100 µM; in the experiment on LOX IMVI melanoma, 44.7 µM; in the experiment with SK-MEL-5 melanoma it was more than 100 µM.

For the compound `O=C1OC2(OC2c2ccc(Cl)cc2)c2ccccc21` (stereo not drawn), the TGI is more than 100 µM in the experiment on NCI-H522 lung; 41.6 µM with HOP-62 NSCLC; more than 100 µM with NCI-H460 lung; more than 100 µM in the experiment with KM12 colon; more than 100 µM in the experiment on MOLT-4 leukemia; more than 100 µM in the experiment with TK-10 renal. In the experiment on LOX IMVI melanoma, this compound yielded a TGI of 34 µM.

As for `CC1(C=O)CCC23COC4(CCC5C6(C)CCC(OC7OCC(OC8OC(CO)C(O)C(OC9OC(CO)C(O)C(O)C9O)C8OC8OCC(O)C(O)C8O)C(O)C7OC7OC(CO)C(O)C(O)C7O)C(C)(C)C6CCC5(C)C4(C)CC2O)C3C1` (stereo not drawn), the TGI in the experiment on NCI-H522 lung worked out at 3.41 µM; with HOP-62 NSCLC, 3.6 µM; with MCF7 breast, 2.07 µM; with NCI-H460 lung, 2.55 µM; with KM12 colon, 1.42 µM; in the experiment on TK-10 renal, 3.33 µM. Also, in the experiment with SK-MEL-5 melanoma, the TGI was 2.96 µM.

In the case of `CCOC(=O)Nc1cc2c(c(N)n1)N=C(c1ccc3ccccc3c1)CN2`, the TGI in the experiment on NCI-H522 lung is 0.545 µM; with MCF7 breast it was more than 100 µM; in the experiment with NCI-H460 lung, 3.33 µM; with KM12 colon it was 3.94 µM; in the experiment with TK-10 renal it was more than 60.7 µM; in the experiment with LOX IMVI melanoma, 8.1 µM. In the experiment with SK-MEL-5 melanoma, this compound returned a TGI of 4.69 µM.
